Each structure is given as a SMILES string. Several values for one entry are separate records, joined by “and”; a condition that tells them apart may be missing. Identical values can stand only once.

The text below walks through data of patent US20220008500A1, “COMPOSITIONS AND METHODS FOR TREATING HEART FAILURE” (The George Washington University, priority 2017, published 2022).

For test [1], the system named is collagen III. In words: Western blot of LV myocardium, collagen III. It is filed as in vivo, Sprague-Dawley rats. As to conditions: CNO 1 mg/kg IP daily. The procedure:
(§1) TAC+OXT and OXT NORM animals received intraperitoneal (IP) injections of CNO (1 mg/kg) daily, beginning at 5 weeks of age until the animal was sacrificed.
Samples of LV myocardium (n=5-6/group) were flash frozen in liquid nitrogen and stored at −80° C. For western blot analysis of protein expression, samples were thawed and homogenized using the Qproteome Mammalian Protein Prep Kit (Qiagen) in tubes containing metallic beads. Samples were then centrifuged at 14,000 g for 20 minutes and protein concentrations were determined by the Pierce BCA Protein Assay (Thermo Scientific). Laemmli buffer (Bio Rad) with 10% 2-mercaptoethanol (Sigma-Aldrich) was added to the samples and samples were heated to 98° C. Equal protein concentration was loaded into wells containing 4-20% Mini-PROTEAN® TGX™ Gels (Bio Rad). The samples were then run at 100V for 1-1.5 hours to separate proteins by electrophoresis.
After electrophoresis, the samples were transferred to PVDF membranes for 10 min at 25V using the Trans-Blot® Turbo™ Transfer System (Bio Rad). The membranes were blocked with 5% milk for 18 hours. […] Band intensities for collagen III and IL-10 were measured using ImageJ and normalized to the corresponding band intensity for GAPDH.

The target in test [2] is DREADDs in PVN OXT neurons (Homo sapiens, UniProt P20309, A239G/Y149C). In words: Ex vivo cardiac function of excised Langendorff perfused hearts during sinus rhythm. Details: expressed in transfected cells; host or cells: PVN oxytocin neurons of Sprague-Dawley rats, transduced in vivo with a Cre-dependent (double-floxed inverse ORF) viral vector plus an OXT-promoter Cre vector; species or system Sprague-Dawley rats.
Sequence of DREADDs in PVN OXT neurons (P20309 whole entry Y149C/A239G, the tested form may be a part): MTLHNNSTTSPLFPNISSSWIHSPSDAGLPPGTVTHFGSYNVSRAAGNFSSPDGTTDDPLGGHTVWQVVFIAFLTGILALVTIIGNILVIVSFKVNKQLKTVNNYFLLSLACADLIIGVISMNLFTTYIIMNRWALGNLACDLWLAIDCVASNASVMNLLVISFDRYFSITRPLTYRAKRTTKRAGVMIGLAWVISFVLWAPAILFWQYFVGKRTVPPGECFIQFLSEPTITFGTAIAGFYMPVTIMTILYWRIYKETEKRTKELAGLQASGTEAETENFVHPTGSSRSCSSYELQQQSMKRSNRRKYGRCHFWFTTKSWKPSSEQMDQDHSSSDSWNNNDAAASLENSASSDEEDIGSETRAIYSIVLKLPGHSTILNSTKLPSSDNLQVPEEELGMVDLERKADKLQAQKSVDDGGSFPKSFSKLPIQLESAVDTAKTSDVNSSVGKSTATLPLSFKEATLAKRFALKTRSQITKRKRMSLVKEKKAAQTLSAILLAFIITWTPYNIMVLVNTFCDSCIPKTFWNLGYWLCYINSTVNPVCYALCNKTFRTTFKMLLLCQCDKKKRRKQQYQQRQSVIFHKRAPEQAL
Text: Pressure overload induced LV hypertrophy was initiated in male Sprague-Dawley rats using a minimally invasive trans-ascending aortic constriction (TAC) procedure. Rats at one week of age were aestheticized by hypothermia and underwent TAC surgery. A 0.5 cm incision was made at the level of the chest, the chest was opened and the thymus was retracted to reveal the aorta. A 4-0 silk suture was passed around the ascending aorta, and with a 25-gauge needle temporarily placed adjacent to the aorta, the suture was tied around both the aorta and needle (TAC and TAC+OXT groups). The needle was then removed, leaving the constricting suture around the aorta. Buprenorphine was applied as an analgesic. Successful constriction was confirmed upon examination of the aorta after each animal was sacrificed.
(§2) Additionally, selective activation of DREADDs in PVN OXT neurons decreases both mean arterial pressure and HR in telemetry instrumented conscious unrestrained animals. […] In this system one viral vector expresses Cre recombinase under an OXT promotor. The second vector expresses the excitatory hM3Dq DREADDs22. This is a Cre-dependent vector that has silencing double-floxed inverse open reading frames, which insures expression is only in OXT neurons that selectively express Cre. In each animal, 30-50 nl containing both viral vectors was selectively microinjected into the PVN over a 20 minutes period at 1 week of age.
as §1
(§3) At nine weeks of age rats were anesthetized with an IP injection of 0.2 mL Telazol and subject to isoflurane inhalation. Following cessation of pain reflexes, hearts were rapidly excised (n=26) and Langendorff perfused via the aorta at constant pressure (65 mmHg) and temperature (37° C.) with a Krebs-Henseleit solution containing (in mM) 115 NaCl, 3.3 KCl, 2.0 CaCl2, 1.4 MgSO4, 25.0 NaHCO3, 1.0 KH2PO4, 5.0 glucose, and 1.0 lactate. Perfusate was oxygenated with 95% 02-5% CO2. After a stabilization period of 10 minutes, a size 5 balloon (Harvard Apparatus) was inserted into the LV to measure isovolumic LV developed pressure (LVDP). Diastolic pressure was set to 10 mmHg and LVDP was computed as the difference between systolic and diastolic pressures. HR, LVDP, and coronary flow rate (CFR) were measured for at least 15 minutes during sinus rhythm. An isoproterenol (16504, Sigma Aldrich) dose response protocol was then administered using concentrations of 0.01, 0.1, 1, 10, 100, 1000 nM, and HR, LVDP, and CFR were measured at each concentration once function stabilized. After each study, rate pressure product (RPP), an indirect measure of LV work, was calculated as the product of HR and LVDP. Contractility and relaxation were measured as the maximum and minimum values of the first derivative of the LVP waveform, respectively, to assess inotropy and lusitropy.

In test [3] the test system is excised Langendorff perfused hearts. The test is described as follows: Isoproterenol dose response in excised Langendorff perfused hearts (β-adrenergic stimulation). The following applies: hearts of TAC rats given CNO daily. Details: species or system Sprague-Dawley rats. As for the experimental part: as §3
Measurements in each group were compared using analysis of variance with Tukey post-hoc comparisons (Minitab 17 Statistical Software) to identify significant differences between groups. Myocyte area measurements were analyzed using fully nested ANOVA to account for both number of cells and number of animals. The isoproterenol dose response data was analyzed using a general linear model (GLM) to evaluate the group effect and the isoproterenol dose effect. Tukey post-hoc tests identified pairwise changes between groups at each isoproterenol concentration. Differences were considered significant if p<0.05.

In test [4] the test system is PVN OXT neurons. In words: Firing of PVN OXT neurons after CNO injection. As to conditions: DREADDs expressed in PVN OXT neurons. It is filed as in vivo.
Text: as §2

Where [5] appears, read: hearts of TAC rats given CNO 1 mg/kg IP daily.
Setting [6] is: hearts of rats without TAC (OXT NORM) given CNO daily.

Take `C[N+]1([O-])CCN(C2=Nc3cc(Cl)ccc3Nc3ccccc32)CC1` [CNO, clozapine N-oxide]: the “Collagen III expression (band intensity normalized to GAPDH)” value in test [1] (TAC rats with DREADDs) was 1.95±0.7 times Control. The “Collagen III expression (band intensity normalized to GAPDH)” value in test [1] (rats without TAC (OXT NORM)) was determined as 1.31±0.5 change from Control. In addition, in test [2] (setting [5]), the “LV contractility (maximum of first derivative of LVP)” value was 3,124±383 mmHg/s, the “LV developed pressure (LVDP)” value came to 126±14 mmHg, the “LV relaxation (minimum of first derivative of LVP)” value is on record as −2,203±231 mmHg/s and the “Rate pressure product (RPP)” value is on record as 26,874±4,036 mmHg*bpm. The “Coronary flow rate (CFR)” value in test [2] (hearts of TAC rats given CNO 1 mg/kg IP daily, baseline (no isoproterenol), listed as TAC+OXT) was 13.8 ± 2.9 mL/min and 14 ± 2.9 mL/min. In test [2] (setting [6]), the “Coronary flow rate (CFR)” value was 16 ± 1.9 mL/min, the “LV contractility (maximum of first derivative of LVP)” value was 4,631±931 mmHg/s, the “LV developed pressure (LVDP)” value is listed as 127±16 mmHg and the “LV relaxation (minimum of first derivative of LVP)” value was −2,926±397 mmHg/s. Moreover, the “Rate pressure product (RPP)” value in test [2] (setting [6]) is 26,978±2,274 mmHg*bpm. The “HR response to increasing isoproterenol concentration” value in test [3] (compared with Control and TAC hearts) was “greatest increase in HR”. Besides, in test [3] (isoproterenol 1000 nM), the “CFR at the highest isoproterenol concentration” value turned out to be 15 ± 1.9 mL/min, the “Contractility at the highest isoproterenol concentration” value was 3,936±589 mmHg/s, the “RPP at the highest isoproterenol concentration” value is 38,017±4,303 mmHg*bpm and the “Relaxation at the highest isoproterenol concentration” value was −3,258±495 mmHg/s. Besides, the “Firing of PVN OXT neurons” value in test [4] was “increases the firing of PVN OXT neurons for at least one hour”.
